Tested on: 885512-296-R-J2-PDC complex spheroid growth, % test/control
Assay: Anticancer human tumor 885512-296-R-J2-PDC patient-derived breast carcinoma cell line growth inhibition [Asc]
Conditions: for IC50: curve of first compound; for viability, T/C: stronger effect = lower value
Outline: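 Stromal components (HUVEC and hMSC) are co-assembled with the cancer cells into multicellular spheroids. Drugs are then added singly or paired, at concentrations falling by half-log increments from a clinically achievable maximum, capped at 10 microM without known Cmax.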

[1] = second compound 0.01 µM, first compound 0.00316 µM
[2] = second compound 0.01 µM, first compound 0.01 µM
[3] = second compound 0.01 µM, first compound 0.0316 µM
[4] = second compound 0.01 µM, first compound 0.1 µM
[5] = second compound 0.0316 µM, first compound 0.00316 µM
[6] = second compound 0.0316 µM, first compound 0.01 µM
[7] = second compound 0.0316 µM, first compound 0.0316 µM
[8] = second compound 0.0316 µM, first compound 0.1 µM
[9] = second compound 0.1 µM, first compound 0.00316 µM
[10] = second compound 0.1 µM, first compound 0.01 µM
[11] = second compound 0.1 µM, first compound 0.0316 µM
[12] = second compound 0.1 µM, first compound 0.1 µM
[13] = second compound 0.316 µM, first compound 0.00316 µM
[14] = second compound 0.316 µM, first compound 0.01 µM
[15] = second compound 0.316 µM, first compound 0.0316 µM
[16] = second compound 0.316 µM, first compound 0.1 µM
[17] = second compound 1 µM, first compound 0.00316 µM
[18] = second compound 1 µM, first compound 0.01 µM
[19] = second compound 1 µM, first compound 0.0316 µM
[20] = second compound 1 µM, first compound 0.1 µM
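Also: spheroids exposed to compounds for seven days.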
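For viability, T/C in this document: 100% = DMSO vehicle control wells.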

SMILES | IC50 (second compound 0.01 µM) | IC50 (second compound 0.0316 µM) | IC50 (second compound 0.1 µM) | IC50 (second compound 0.316 µM) | IC50 (second compound 1 µM) | viability, T/C [1] | viability, T/C [2] | viability, T/C [3] | viability, T/C [4] | viability, T/C [5] | viability, T/C [6] | viability, T/C [7] | viability, T/C [8] | viability, T/C [9] | viability, T/C [10] | viability, T/C [11] | viability, T/C [12] | viability, T/C [13] | viability, T/C [14] | viability, T/C [15] | further results
COc1c(OCCCN2CCOCC2)ccc2c3n(c(=NC(=O)c4cnc(N)nc4)nc12)CCN3 + CNC(C)C(=O)NC1CN(S(=O)(=O)c2cccc(S(=O)(=O)N3CCC4CCC(C(=O)NC(c5ccccc5)c5ccccc5)N4C(=O)C(NC(=O)C(C)NC)C3)c2)CCC2CCC(C(=O)NC(c3ccccc3)c3ccccc3)N2C1=O | 358 nM | 394 nM | 387 nM | 410 nM | 343 nM | 85.2% | 86.4% | 79.6% | 88.2% | 98.4% | 92.1% | 89.3% | 85.3% | 104% | 98.6% | 86.3% | 81.8% | 89.5% | 93.2% | 97.4% | viability, T/C (second compound 0.01 µM, first compound 0.316 µM): 55.1%; viability, T/C (second compound 0.01 µM, first compound 1 µM): 7.8%; viability, T/C (second compound 0.0316 µM, first compound 0.316 µM): 59.3%; viability, T/C (second compound 0.0316 µM, first compound 1 µM): 8.15%; viability, T/C (second compound 0.1 µM, first compound 0.316 µM): 61.5%; viability, T/C (second compound 0.1 µM, first compound 1 µM): 8.94%; viability, T/C [16]: 83.6%; viability, T/C (second compound 0.316 µM, first compound 0.316 µM): 62.6%; viability, T/C (second compound 0.316 µM, first compound 1 µM): 7.92%; viability, T/C [17]: 102%; viability, T/C [18]: 105%; viability, T/C [19]: 99.8%; viability, T/C [20]: 79%; viability, T/C (second compound 1 µM, first compound 0.316 µM): 54.5%; viability, T/C (second compound 1 µM, first compound 1 µM): 8.06%
Cn1ncnc1[C@H]1c2n[nH]c(=O)c3cc(F)cc(c23)N[C@@H]1c1ccc(F)cc1 + CNC(C)C(=O)NC1CN(S(=O)(=O)c2cccc(S(=O)(=O)N3CCC4CCC(C(=O)NC(c5ccccc5)c5ccccc5)N4C(=O)C(NC(=O)C(C)NC)C3)c2)CCC2CCC(C(=O)NC(c3ccccc3)c3ccccc3)N2C1=O | 26.2 nM | 17.6 nM | 23.4 nM | 15.3 nM | 21.3 nM | 73.5% | 63.4% | 47.7% | 26.2% | 92.3% | 60.5% | 40.1% | 31.2% | 90.8% | 70.5% | 42.9% | 22.4% | 94.6% | 56% | 42.4% | viability, T/C (second compound 0.01 µM, first compound 0.000316 µM): 86%; viability, T/C (second compound 0.01 µM, first compound 0.001 µM): 71.1%; viability, T/C (second compound 0.0316 µM, first compound 0.000316 µM): 98.5%; viability, T/C (second compound 0.0316 µM, first compound 0.001 µM): 96.5%; viability, T/C (second compound 0.1 µM, first compound 0.000316 µM): 102%; viability, T/C (second compound 0.1 µM, first compound 0.001 µM): 100%; viability, T/C (second compound 0.316 µM, first compound 0.000316 µM): 98%; viability, T/C (second compound 0.316 µM, first compound 0.001 µM): 100%; viability, T/C [16]: 27.6%; viability, T/C (second compound 1 µM, first compound 0.000316 µM): 108%; viability, T/C (second compound 1 µM, first compound 0.001 µM): 97.1%; viability, T/C [17]: 98.2%; viability, T/C [18]: 65.6%; viability, T/C [19]: 42.5%; viability, T/C [20]: 26.2%

Reference: PubChem BioAssay AID1963447 (Molecular Pharmacology Branch, DTP, NCI, 2024)
